According to patent publication US20030114504A1, “Compositions and methods for the treatment of cancer” (priority 2001, published 2003):

Columns and labels:
A2780S cells [1] = experiment: Inhibition of tumor cell proliferation in vitro, 72 hour treatment; assay type: cell-based; conditions: Homo sapiens
[2] = test system: A2780 ovarian carcinoma cells; experiment: Clonogenic growth assay and drug combination studies; assay type: cell-based, human; conditions: clonogenic assays, single agent
A2780S cells [3] = experiment: Cell cycle analysis by flow cytometry; assay type: cell-based, human; conditions: 170 nM
Method: Log phase A2780s cells were plated overnight in 6 well plates. […] Cells were harvested by trypsinization followed by centrifugation. Cell pellets were then resuspended by vortexing in 1 ml 80% methanol and fixed overnight at −20° C. Cells were recovered by centrifugation and washed two times with 1 ml of PBS. Cells were resuspended in 1 ml PBS, 2% FBS, 0.25% Triton X-100 and incubated at 4° C. for 10 minutes. Cells were again recovered by centrifugation and resuspended in 50 μl PBS, 2% FBS, 0.1% Triton X-100. Anti-Phospho-Threonine Proline antibody (IgM, New England Biolabs #9391S) was added and the cells were incubated for 30 minutes at 4° C. Cells were washed with PBS, 2% FBS, 0.1% Triton X-100 and resuspended in 50 μl PBS, 2% FBS, 0.1% Triton X-100. FITC-anti-Mouse antibody (Pharmingen #12064D) was added and incubated for 30 minutes at 4° C. in the dark. Cells were washed with PBS, 2% FBS, 0.1% Triton X-100 and resuspended in Propidium Iodide/RNase in PBS (10 μg/ml PI, 100 μg/ml RNase (DNase free)) and incubated at 37° C. for 30 minutes in the dark. Samples were analyzed using a flow cytometer.

[4] = test system: PARP cleavage in A2780S cells; experiment: PARP cleavage by western blot; assay type: cell-based, human; conditions: 24 hour time point
Method: FIG. 3. […]. Protein extracts were then examined by western blot using an anti-PARP antibody (Clonetech). The arrow signifies caspase cleaved PARP protein fragment.
Compound treated A2780S cells were harvested at approximately 70% confluence and total protein was prepared by lysing the cells in RIPA [50 mM Tris (pH8), 150 mM NaCl, 1% NP-40, 0.5% Na-deoxycolate, 0.1% SDS, 0.1% Na3VO4, 0.1 mM NaF, 10 mM β-glycerophosphate, plus Complete® protease inhibitors (Boehringer Mannhiem)] buffer. Cell pellets were resuspended at a density of<2×10^7 cells/ml and incubated for 20 minutes on ice followed by a high speed 14,000 rpm centrifugation. The protein supernatant was then removed from the debris and protein content was quantitated using the Micro-BCA assay (Pierce). Treated extracts (25 microgram/lane) were then separated using a 10% SDS-polyacrylamide gel (10.5×14 cm). Proteins were then transferred from the gel to PVDF-membrane (Millipore) by exposure to […] in a semi-dry blotting apparatus (Hoeffer). PVDF protein blots were then blocked with 5% non-fat milk in TTBS (0.1% Tween 20 in Tris-buffered saline). […]. The blots were then washed three times with TTBS and developed with ECL-plus western blotting detection system (Amersham).

in vivo = conditions: Balb/c nu/nu nude, mouse, in vivo
Method: (§1) In vivo Antitumor Testing
(§2) Paclitaxel was dissolved in a 50/50 mixture of ethanol and Cremophor® and stored at 4° C.; final dilution of paclitaxel was obtained immediately before drug administration with NaCl 0.9%. 5-FU was dissolved in normal saline (NaCl 0.9%). […] The volume of all compounds injected was 0.01 ml/g of mouse weight.
(§3) Solid Tumor Xenografts in Nude Mice.
(§4) All solid tumors were maintained in Balb/c nu/nu nude mice. Tumors were propagated as subcutaneous transplants using tumor fragments obtained from donor mice. All tumor implants for efficacy testing were subcutaneous (sc).
(§5) The required number of animals needed to detect a meaningful response were grouped at the start of the experiment and each was given a subcutaneous implant of a tumor fragment (˜50 mg) with a 13-gauge trocar. For treatment of early-stage tumors, the animals were again grouped before distribution to the various treatment and control groups. For treatment of animals with advanced-stage disease, tumors were allowed to grow to the pre-determined size window (animals with tumors outside the range were excluded) and animals were evenly distributed to various treatment and control groups. Treatment of each animal was based on individual body weight. Treated animals were checked daily for treatment related toxicity/mortality. Each group of animals was weighed before the initiation of treatment (Wt1) and then again following the last treatment dose (Wt2). The difference in body weight (Wt2-Wt1) provides a measure of treatment-related toxicity.
(§6) Tumor response was determined by measurement of tumors with a caliper twice a week, until the tumors reach a predetermined “target” size of 1 g. Tumor weights (mg) were estimated from the Formula: […]
(§7) Antitumor activity was evaluated at the maximum tolerated dose (MTD) which is defined as the dose level immediately […] which excessive toxicity (i.e. more than one death) occurred. […] When death occured, the day of death was recorded.
(§8) Tumor response end-point was expressed in terms of tumor growth delay (T-C value), defined as the difference in time (days) required for the treated tumors (T) to reach a predetermined target size compared to those of the control group ®.
(§9) To estimate tumor cell kill, the tumor volume doubling time (TVDT) was first calculated with the Formula:
(§10) TVDT=Median time (days) for control tumors to reach target size−Median time (days) for control tumors to reach half the target size

[5] = test system: Colo205 human colon carcinoma; experiment: Colo205 xenograft in nude mice; conditions: for tumor regression: at MTD; for antitumor activity (in words): head-to-head at MTD
Method: as §1, §2, §3, §4, §5, §6, §7, §8, §9, §10

[6] = test system: A2780 human ovarian carcinoma; experiment: A2780 xenograft in nude mice; assay type: in vivo
[7] = test system: P388 mouse leukemia, Cyclin E transgenic mouse breast carcinoma, A2780, Colo205 and A431 tumor models; experiment: Multiple murine and human tumor models in vivo; set-up: species or system mice
Excerpt: The following tumors were used: A2780 human ovarian carcinoma, Br-cycE murine breast carcinoma, A431 human squamous cell carcinoma and Colo 205 colorectal carcinoma.
Compound 1 was compared head to head with flavopiridol in each of these models.

## CC(C)(C)c1cnc(CSc2cnc(NC(=O)C3CCNCC3)s2)o1 [Compound 1, N-[5-[[[5-(1,1-Dimethylethyl)-2-oxazolyl]methyl]thio]-2-thiazolyl]-4-piperidinecarboxamide]
A2780S cells [1]
  IC90: 170 nM
[2]
  drug exposure sufficient to elicit a maximal anti-proliferative response: 8 h
A2780S cells [3]; 8 hr. exposure
  % Apo (sub-G1 cells by DNA staining): 6%
  % G1: 56%
  % G2: 22%
  % M: 1%
  % S: 15%
A2780S cells [3]; 24 hr. exposure
  % Apo (sub-G1 cells by DNA staining): 32 ± 12%
  % G1: 45%
  % G2: 9.7%
  % M: 0.3%
  % S: 8%
[4]
  PARP cleavage (caspase activation): Extensive cleavage
In vivo; ip
  MTD at 8 days: 36 mg/kg
[5]; MTD of 36 mg/kg, IP, QD×8
  log cell kill (LCK): > 2.0 LCK
[5]
  tumor regression: tumor regression
  antitumor activity (in words): marked antitumor activity
[6]; IP
  schedule dependence of activity: qdx8=qdx14>>>q2dx5=q4dx3
[6]; dosed IP, qdx8 schedule, multiple dose levels
  efficacy: curative efficacy
[6]; dosed orally, qdx8 schedule
  efficacy: modest efficacy
[6]; single 24 hour continuous infusion at the MTD
  efficacy: curative efficacy
[7]
  anti-tumor activity in vivo: broad spectrum anti-tumor activity

## O=c1[nH]cc(F)c(=O)[nH]1 [Compound 5-FU, 5-fluorouracil, reference compound]
[5]
  tumor regression: failed to achieve tumor regression
  antitumor activity (in words): considerably less active

## CC(=O)O[C@H]1C(=O)[C@@]2(C)[C@H]([C@H](OC(=O)c3ccccc3)[C@]3(O)C[C@H](OC(=O)[C@H](O)[C@@H](NC(=O)c4ccccc4)c4ccccc4)C(C)=C1C3(C)C)[C@]1(OC(C)=O)CO[C@@H]1C[C@@H]2O [Paclitaxel, paclitaxel, reference compound]
In vivo; iv
  MTD: 36 mg/kg
[5]
  antitumor activity (in words): comparable to Compound 1
